# Experimental data as given in paper doi:10.1101/2021.04.08.439011v1 (biorxiv, 2021).
# Like-named read-outs stand apart in the source and are kept apart here.
# Assays:
# EPHB2 = EPHB2 (Homo sapiens, UniProt P29323); conditions: 0.1 µM; binder
# PIP4K2B = PIP4K2B (Homo sapiens, UniProt P78356); conditions: 0.1 µM; binder
# YES = YES (Homo sapiens, UniProt P07947); conditions: 0.1 µM; binder
# MAP4K2 = MAP4K2 (Homo sapiens, UniProt Q12851); conditions: 0.1 µM; binder
# FLT3(N841I) = FLT3(N841I) (Homo sapiens, UniProt P36888, N841I); conditions: 0.1 µM; binder
# EPHA4 = EPHA4 (Homo sapiens, UniProt P54764); conditions: 0.1 µM; binder
# CIT = CIT (Homo sapiens, UniProt O14578); conditions: 0.1 µM; binder
# YANK1 = YANK1 (Homo sapiens, UniProt Q8WU08); conditions: 0.1 µM; binder
# DCAMKL3 = DCAMKL3 (Homo sapiens, UniProt Q9C098); conditions: 0.1 µM; binder
# FLT3 = target: T1, FLT3 (Homo sapiens, UniProt P36888); conditions: 0.1 µM, binder
# T1 sequence (P36888 1-993): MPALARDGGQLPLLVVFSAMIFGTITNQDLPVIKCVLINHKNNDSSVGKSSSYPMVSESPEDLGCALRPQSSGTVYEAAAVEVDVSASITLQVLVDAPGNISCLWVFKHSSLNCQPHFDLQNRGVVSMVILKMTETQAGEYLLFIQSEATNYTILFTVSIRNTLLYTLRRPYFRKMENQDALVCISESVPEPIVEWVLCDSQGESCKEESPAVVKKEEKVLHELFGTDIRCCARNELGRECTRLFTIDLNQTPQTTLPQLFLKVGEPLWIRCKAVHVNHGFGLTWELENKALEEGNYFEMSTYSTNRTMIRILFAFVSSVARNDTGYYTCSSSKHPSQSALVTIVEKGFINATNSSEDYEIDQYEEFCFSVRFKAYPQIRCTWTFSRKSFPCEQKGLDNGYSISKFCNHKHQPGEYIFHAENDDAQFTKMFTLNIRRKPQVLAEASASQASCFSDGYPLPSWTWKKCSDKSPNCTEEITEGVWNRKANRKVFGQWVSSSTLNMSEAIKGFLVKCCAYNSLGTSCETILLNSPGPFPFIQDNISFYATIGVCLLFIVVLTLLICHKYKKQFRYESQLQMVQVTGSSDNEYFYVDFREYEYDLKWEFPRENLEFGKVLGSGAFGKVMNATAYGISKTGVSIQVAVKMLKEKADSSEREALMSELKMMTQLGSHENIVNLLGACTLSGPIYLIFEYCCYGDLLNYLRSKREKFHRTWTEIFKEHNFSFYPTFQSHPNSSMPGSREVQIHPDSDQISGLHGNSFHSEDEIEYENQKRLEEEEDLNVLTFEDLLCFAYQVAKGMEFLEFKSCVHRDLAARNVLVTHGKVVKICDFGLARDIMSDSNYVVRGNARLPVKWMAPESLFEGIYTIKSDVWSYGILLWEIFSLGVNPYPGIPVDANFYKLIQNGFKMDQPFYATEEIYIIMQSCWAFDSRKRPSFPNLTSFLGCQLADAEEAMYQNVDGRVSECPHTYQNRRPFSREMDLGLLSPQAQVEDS
# CAMK4 = CAMK4 (Homo sapiens, UniProt Q16566); conditions: 0.1 µM; binder
# SGK2 = SGK2 (Homo sapiens, UniProt Q9HBY8); conditions: 0.1 µM; binder
# Chain of SGK2 (Q9HBY8 whole entry): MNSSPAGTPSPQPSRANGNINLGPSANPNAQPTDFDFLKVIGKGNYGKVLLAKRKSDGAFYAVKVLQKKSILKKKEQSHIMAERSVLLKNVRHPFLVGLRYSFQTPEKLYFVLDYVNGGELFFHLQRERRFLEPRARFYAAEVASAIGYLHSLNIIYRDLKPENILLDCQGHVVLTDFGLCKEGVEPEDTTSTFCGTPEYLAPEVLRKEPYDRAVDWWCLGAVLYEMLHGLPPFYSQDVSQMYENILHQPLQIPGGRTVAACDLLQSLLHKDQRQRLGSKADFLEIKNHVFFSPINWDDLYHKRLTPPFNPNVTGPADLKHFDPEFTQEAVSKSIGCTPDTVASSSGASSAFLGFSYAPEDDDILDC
# HIPK1 = HIPK1 (Homo sapiens, UniProt Q86Z02); conditions: 0.1 µM; binder
# TIE2 = TIE2 (Homo sapiens, UniProt Q02763); conditions: 0.1 µM; binder
# Chain of TIE2 (Q02763 whole entry): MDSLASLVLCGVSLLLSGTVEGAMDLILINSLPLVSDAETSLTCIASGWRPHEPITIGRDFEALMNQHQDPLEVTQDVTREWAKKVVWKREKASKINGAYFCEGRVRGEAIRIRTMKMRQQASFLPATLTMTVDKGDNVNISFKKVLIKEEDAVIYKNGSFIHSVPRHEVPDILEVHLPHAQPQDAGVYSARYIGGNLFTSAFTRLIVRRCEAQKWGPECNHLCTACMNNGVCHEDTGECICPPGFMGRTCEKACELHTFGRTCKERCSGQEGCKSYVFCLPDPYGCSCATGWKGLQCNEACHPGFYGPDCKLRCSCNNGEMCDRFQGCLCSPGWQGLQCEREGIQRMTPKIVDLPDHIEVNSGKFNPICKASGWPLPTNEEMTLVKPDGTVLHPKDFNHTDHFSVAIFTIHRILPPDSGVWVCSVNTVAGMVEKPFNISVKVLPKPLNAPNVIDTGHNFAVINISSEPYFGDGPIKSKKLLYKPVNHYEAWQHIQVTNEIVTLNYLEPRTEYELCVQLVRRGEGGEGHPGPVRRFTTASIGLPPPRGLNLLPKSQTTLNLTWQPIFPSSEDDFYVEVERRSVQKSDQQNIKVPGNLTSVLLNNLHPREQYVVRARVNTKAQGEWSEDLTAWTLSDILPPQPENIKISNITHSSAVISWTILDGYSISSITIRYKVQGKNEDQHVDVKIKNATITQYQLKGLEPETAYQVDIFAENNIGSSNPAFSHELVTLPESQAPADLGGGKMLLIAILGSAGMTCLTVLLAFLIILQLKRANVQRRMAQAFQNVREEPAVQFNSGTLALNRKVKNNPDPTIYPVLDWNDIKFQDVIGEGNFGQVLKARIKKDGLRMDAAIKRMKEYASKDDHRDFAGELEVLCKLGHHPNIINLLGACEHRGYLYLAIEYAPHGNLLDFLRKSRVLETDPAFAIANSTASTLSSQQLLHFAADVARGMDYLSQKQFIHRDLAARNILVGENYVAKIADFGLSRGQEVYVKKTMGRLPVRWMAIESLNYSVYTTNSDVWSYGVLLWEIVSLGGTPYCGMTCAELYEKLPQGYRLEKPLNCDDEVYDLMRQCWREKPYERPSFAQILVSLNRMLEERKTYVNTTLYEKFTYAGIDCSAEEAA
# PDGFRA = PDGFRA (Homo sapiens, UniProt P16234); conditions: 0.1 µM; binder
# Chain of PDGFRA (P16234 whole entry): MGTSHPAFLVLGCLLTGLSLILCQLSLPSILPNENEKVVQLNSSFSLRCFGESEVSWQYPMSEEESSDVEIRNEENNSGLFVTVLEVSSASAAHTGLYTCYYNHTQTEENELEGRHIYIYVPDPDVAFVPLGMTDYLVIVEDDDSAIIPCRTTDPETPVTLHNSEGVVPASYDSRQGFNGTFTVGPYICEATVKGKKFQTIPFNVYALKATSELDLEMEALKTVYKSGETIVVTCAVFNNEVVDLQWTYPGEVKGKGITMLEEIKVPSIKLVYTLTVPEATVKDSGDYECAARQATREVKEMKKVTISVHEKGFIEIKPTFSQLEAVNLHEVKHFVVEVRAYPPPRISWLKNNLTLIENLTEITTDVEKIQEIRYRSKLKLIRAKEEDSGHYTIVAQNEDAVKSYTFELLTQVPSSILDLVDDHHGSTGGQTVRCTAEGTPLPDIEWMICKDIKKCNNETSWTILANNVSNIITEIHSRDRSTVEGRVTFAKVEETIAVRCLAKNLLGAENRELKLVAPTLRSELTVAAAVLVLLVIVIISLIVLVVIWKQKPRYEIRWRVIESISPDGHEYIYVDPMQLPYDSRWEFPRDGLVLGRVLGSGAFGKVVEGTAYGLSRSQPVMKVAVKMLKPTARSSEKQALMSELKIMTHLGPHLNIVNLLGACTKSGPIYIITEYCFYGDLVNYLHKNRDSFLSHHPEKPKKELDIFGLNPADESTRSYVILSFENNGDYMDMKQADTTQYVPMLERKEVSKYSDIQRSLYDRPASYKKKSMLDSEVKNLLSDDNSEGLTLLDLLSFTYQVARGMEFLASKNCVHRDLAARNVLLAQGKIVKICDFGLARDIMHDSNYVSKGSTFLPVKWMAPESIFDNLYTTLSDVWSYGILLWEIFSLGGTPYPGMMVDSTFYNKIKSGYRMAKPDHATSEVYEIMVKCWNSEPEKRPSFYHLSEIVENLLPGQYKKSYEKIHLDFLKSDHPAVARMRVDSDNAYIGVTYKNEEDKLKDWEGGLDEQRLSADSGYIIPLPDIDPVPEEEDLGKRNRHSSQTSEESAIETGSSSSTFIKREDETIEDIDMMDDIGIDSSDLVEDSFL
# RIOK3 = RIOK3 (Homo sapiens, UniProt O14730); conditions: 0.1 µM; binder
# Chain of RIOK3 (O14730 whole entry): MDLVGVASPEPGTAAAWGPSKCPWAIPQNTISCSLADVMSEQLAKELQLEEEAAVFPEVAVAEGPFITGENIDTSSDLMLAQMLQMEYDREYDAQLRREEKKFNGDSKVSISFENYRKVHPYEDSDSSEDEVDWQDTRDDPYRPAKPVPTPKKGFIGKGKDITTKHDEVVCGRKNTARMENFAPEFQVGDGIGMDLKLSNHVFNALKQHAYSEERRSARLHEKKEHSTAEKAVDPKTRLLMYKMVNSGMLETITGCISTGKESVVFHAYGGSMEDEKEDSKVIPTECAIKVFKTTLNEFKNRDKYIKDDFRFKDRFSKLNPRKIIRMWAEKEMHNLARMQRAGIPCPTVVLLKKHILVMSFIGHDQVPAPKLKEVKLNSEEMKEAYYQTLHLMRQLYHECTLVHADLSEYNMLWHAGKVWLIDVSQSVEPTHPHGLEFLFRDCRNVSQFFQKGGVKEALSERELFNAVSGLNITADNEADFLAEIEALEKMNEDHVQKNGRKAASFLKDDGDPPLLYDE
# PYK2 = PYK2 (Homo sapiens, UniProt Q14289); conditions: 0.1 µM; binder
# Chain of PYK2 (Q14289 whole entry): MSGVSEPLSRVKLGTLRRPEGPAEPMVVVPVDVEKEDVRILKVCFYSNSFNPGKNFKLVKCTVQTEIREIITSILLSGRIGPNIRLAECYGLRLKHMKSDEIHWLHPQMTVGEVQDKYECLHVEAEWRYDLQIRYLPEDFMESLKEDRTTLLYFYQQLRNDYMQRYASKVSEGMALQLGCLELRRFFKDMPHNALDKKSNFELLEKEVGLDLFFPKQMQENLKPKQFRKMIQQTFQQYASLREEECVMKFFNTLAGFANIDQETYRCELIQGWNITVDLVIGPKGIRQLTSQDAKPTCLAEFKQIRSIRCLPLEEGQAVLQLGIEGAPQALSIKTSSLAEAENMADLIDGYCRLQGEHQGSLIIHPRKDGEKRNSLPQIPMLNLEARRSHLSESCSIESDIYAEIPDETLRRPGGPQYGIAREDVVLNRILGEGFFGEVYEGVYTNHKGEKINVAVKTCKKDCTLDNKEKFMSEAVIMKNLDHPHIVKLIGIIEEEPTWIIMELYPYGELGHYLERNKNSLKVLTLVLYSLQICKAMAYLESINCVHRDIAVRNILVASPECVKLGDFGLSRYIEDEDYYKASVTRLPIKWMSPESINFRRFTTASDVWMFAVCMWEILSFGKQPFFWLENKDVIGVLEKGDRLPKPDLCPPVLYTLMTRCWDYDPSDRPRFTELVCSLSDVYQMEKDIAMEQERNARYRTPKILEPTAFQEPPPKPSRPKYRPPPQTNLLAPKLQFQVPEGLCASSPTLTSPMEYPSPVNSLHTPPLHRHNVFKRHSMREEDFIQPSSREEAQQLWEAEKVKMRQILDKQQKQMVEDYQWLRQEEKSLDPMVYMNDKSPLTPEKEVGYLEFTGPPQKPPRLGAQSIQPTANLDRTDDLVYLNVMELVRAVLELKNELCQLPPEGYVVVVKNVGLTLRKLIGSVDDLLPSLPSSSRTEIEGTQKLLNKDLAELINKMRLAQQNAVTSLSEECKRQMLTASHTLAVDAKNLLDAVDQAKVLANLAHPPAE
# OSR1 = OSR1 (Homo sapiens, UniProt O95747); conditions: 0.1 µM; binder
# Chain of OSR1 (O95747 whole entry): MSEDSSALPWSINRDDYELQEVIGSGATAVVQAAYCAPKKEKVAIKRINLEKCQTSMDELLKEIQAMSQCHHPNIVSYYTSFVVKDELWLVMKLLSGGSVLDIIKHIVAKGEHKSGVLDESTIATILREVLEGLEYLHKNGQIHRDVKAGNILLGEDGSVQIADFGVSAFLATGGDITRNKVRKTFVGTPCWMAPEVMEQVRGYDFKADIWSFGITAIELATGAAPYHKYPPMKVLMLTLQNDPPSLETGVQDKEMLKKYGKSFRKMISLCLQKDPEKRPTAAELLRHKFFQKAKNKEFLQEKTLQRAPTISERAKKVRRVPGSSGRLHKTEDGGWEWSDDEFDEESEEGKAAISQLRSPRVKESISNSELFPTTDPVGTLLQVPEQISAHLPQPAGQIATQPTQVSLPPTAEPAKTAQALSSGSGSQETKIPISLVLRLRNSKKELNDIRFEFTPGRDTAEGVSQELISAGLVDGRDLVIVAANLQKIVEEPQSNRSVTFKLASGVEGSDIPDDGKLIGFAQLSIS
# PRKD1 = PRKD1 (Homo sapiens, UniProt Q15139); conditions: 0.1 µM; binder
# FLT4 = FLT4 (Homo sapiens, UniProt P35916); conditions: 0.1 µM; binder
# ROS1 = ROS1 (Homo sapiens, UniProt P08922); conditions: 0.1 µM; binder
# PNCK = PNCK (Homo sapiens, UniProt Q6P2M8); conditions: 0.1 µM; binder
# Chain of PIP4K2B (P78356 whole entry): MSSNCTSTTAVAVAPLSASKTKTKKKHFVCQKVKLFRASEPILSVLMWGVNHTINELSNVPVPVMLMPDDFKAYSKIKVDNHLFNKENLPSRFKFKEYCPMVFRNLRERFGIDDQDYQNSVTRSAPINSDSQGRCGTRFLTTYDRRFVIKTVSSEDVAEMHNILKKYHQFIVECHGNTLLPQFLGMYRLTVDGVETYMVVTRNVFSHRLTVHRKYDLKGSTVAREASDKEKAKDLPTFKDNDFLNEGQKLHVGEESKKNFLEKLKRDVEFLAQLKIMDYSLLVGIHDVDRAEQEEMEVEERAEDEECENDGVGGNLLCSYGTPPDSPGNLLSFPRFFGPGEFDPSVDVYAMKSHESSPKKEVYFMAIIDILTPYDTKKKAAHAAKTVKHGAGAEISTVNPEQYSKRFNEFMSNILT
structure (smiles),measurement,setting,value
"CNc1ncc2cc(-c3ccc(-c4cccc(C)n4)cc3Cl)c(=O)n(C[C@H]3OC[C@H](N)CO3)c2n1 [compound 6, G-5555]",Percent Control,EPHB2,100%
same,Percent Control,PIP4K2B,68%
same,Percent Control,YES,100%
same,Percent Control,MAP4K2,63%
same,Percent Control,FLT3(N841I),100%
same,Percent Control,EPHA4,100%
same,Percent Control,CIT,100%
same,Percent Control,YANK1,5.3%
same,Percent Control,DCAMKL3,29%
same,Percent Control,FLT3,100%
same,Percent Control,FLT3; autoinhibited,94%
same,Percent Control,CAMK4,100%
same,Percent Control,SGK2,100%
same,Percent Control,HIPK1,100%
same,Percent Control,TIE2,87%
same,Percent Control,PDGFRA,100%
same,Percent Control,RIOK3,85%
same,Percent Control,PYK2,100%
same,Percent Control,OSR1,99%
same,Percent Control,PRKD1,68%
same,Percent Control,FLT4,100%
same,Percent Control,ROS1,100%
same,Percent Control,PNCK,97%
